Earlier results in patent US20100273829A1, “Methods for Treating Disorders Associated with Hyperlipidemia in a Mammal” (priority 2005, published 2010).
“Also recorded” adds a separate entry of the source. Where two headings read alike, the source gives them in different places.

Columns and labels:
[1] = ezetimibe 10 mg/day added to maximal statin regimen (80 mg/day), hoFH patients

Question: For `O=C(NC1CCN(CCCCC2(C(=O)NCC(F)(F)F)c3ccccc3-c3ccccc32)CC1)c1ccccc1-c1ccc(C(F)(F)F)cc1` [BMS-201038, N-(2,2,2-Trifluorethyl)-9-[4-[4-[[[4′-(trifluoromethyl)[1,1′biphenyl]-2-Yl]carbonyl]amino]-1-piperidinyl]butyl]9H-fluorene-9-carboxamide], which adverse events (patients, 25 mg/day BMS-201038 monotherapy) is on record?
Answer: gastrointestinal perturbations, abnormalities in liver function, and hepatic steatosis; also recorded: gastrointestinal disorders, abnormalities in liver function and/or hepatic steatosis

Question: For `O=C1[C@H](CC[C@H](O)c2ccc(F)cc2)[C@@H](c2ccc(O)cc2)N1c1ccc(F)cc1` [ezetimibe], which “total reduction of LDL-C levels” value [1] is on record?
Answer: 27%

Question: With `Cc1cc(C)c2c3ccccc3n(Cc3ccc([C@@H](C(=O)N[C@H](CO)c4ccccc4)C4CCCC4)cc3)c2n1` [implitapide, (2S)-2-cyclopentyl-2-[4-[(2,4-dimethyl-9H-pyrido[2,3-b]indol-9-yl)methyl]phenyl]-N-[(1S)-2-hydroxy-1-phenylethyl]ethanamide] as the compound, how does the therapeutic efficacy (clinical studies, implitapide 80 mg/day or greater) read?
Answer: therapeutically effective

Question: And the adverse events (clinical studies, implitapide 80 mg/day or greater (80 mg/day, 160 mg/day))?
Answer: gastrointestinal disturbances, abnormalities in liver function, and hepatic steatosis; also recorded: gastrointestinal disorders, abnormalities in liver function and/or hepatic steatosis
